Laboratory results reported in PubChem BioAssay (NCI).
Where “and” joins values, the source holds several entries; their conditions need not be identical. Identical values can stand only once.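 Test compounds were applied to cells in 96-well plates for 48 hours at 5 doses. The concentration for 50% growth inhibition is given as GI50. TGI: total growth inhibition.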

system: HT29 colon; assay: NCI anticancer screen, dose series, 48 h

SMILES | TGI | GI50
Nc1ccccc1C(=O)/C=C/c1c(O)ccc2ccccc12 | > 100 µM | –
CCC(C)(O)c1cnc(CC(C)C)c(=O)n1O (configuration not stated) | > 100 µM | –
CCC1CN2CCc3cc(OC)c(OC)cc3C2CC1CC1c2cc(OC)c(OC)cc2CCN1C(=O)C1CCCN1 (configuration not stated) | > 100 µM | –
CC(C(=O)c1ccc(Cl)cc1)/C(=N/NC(=O)NN)C(=O)Nc1cccc(C(F)(F)F)c1 (configuration not stated) | > 100 µM | –
COc1cc2c(/C=N\N=C(N)N)c[nH]c2cc1C | 37.1 µM | 18000 nM
CCOP(=O)(OCC)C(C(=O)OC)C(=O)C(=O)Nc1ccc(Cl)cc1Cl (configuration not stated) | > 100 µM | –
Cn1cc(-c2csc(-c3cn(CCCCN4CCCCC4)c4ccccc34)n2)c2cccnc21 | 3.1 µM | 1580 nM
CC(C)=C1CCC(CN(C)C)C1=O (configuration not stated) | 41.1 µM | –
COc1cccc(/C=N/[N-]C(=O)c2ccncc2)c1[O-].COc1cccc(/C=N/[N-]C(=O)c2ccncc2)c1[O-].[O]=[U](=[O])([OH2+])[OH2+] | > 100 µM | 30700 nM
CC(C)(C)c1ccc2c(c1)S(=O)(=O)Nc1ccc(Cl)cc1NS(=O)(=O)c1cc(C(C)(C)C)ccc1OCCOCCOCCO2 | > 100 µM | –
O=C1c2ccccc2-c2c1c1ccccc1c(=O)n2CCN1CCNCC1 | 8.02 µM | 1580 nM
N#CC(=Nc1ccccc1N(C(=O)c1ccccc1)C(=O)c1ccccc1)c1ccccc1 | > 100 µM | –
COc1c(C)n(CCO)ccc1=O | > 100 µM | –
COC(=O)C(=O)C(C(C)=O)C(=O)NCc1ccc(OC)c(OC)c1 (configuration not stated) | > 100 µM | –
COc1ccc(-c2ccc3c(N4CCOC[C@@H]4C)nc(N4CCOC[C@@H]4C)nc3n2)cc1CO | > 10 µM and 5.9 µM | 6.74 nM and 38.5 nM
Nc1c(-c2ccccc2-c2c(N)[n+]([O-])c3ccccc3[n+]2[O-])[n+]([O-])c2ccccc2[n+]1[O-] | > 100 µM | –
CCOC(=O)NC(=O)c1cn(C(CC)COC(=O)NCCCCCCNC(=O)OCC(CC)n2cc(C(=O)NC(=O)OCC)c(=O)[nH]c2=O)c(=O)[nH]c1=O (configuration not stated) | > 100 µM | –
COc1ccc(-c2nc(-c3cc(OC)cc(OC)c3)[nH]c2-c2ccc(OC)cc2)cc1 | > 100 µM | 4970 nM
COC(=O)c1cc2c(o1)-c1nccc3c1c(nc1ccccc13)C2=O | 24.8 µM | 8010 nM

SMILES | TGI | GI50
O=C(CC(=O)C1CCOC1=O)C(=O)Nc1cccc(Cl)c1 (configuration not stated) | > 100 µM | –
CCN1c2ccccc2-c2c3c1cc(C)cc3c1ccccc1[n+]2CC | 3.92 µM | –
Cc1cccc(C2=C/C(=C(\SS/C(C(=O)c3ccc(OCC(=O)O)c(Cl)c3Cl)=C3\C=C(c4cccc(C)c4)SS3)C(=O)c3ccc(OCC(=O)O)c(Cl)c3Cl)SS2)c1 | > 75 µM | –
CC(=O)N1CCN(c2ccc(OCC3COC(Cn4ccnc4)(c4ccc(Cl)cc4Cl)O3)cc2)CC1 (configuration not stated) | 43.9 µM | –
O=C(Cc1nc2c3c(ccc2[nH]c1=O)C(=O)c1ccccc1C3=O)C(=O)Nc1ccccc1[N+](=O)[O-] | 41.7 µM | –
CC1=C(C#N)C(=O)CC(c2ccc(Cl)cc2)N(C)N1 (configuration not stated) | > 100 µM | –
Nc1nc(-c2ccc(Cl)c([N+](=O)[O-])c2)cs1 | > 100 µM | –
COc1cc(/C=C2\[C@H]3c4c(c(OC)c(C)c(OC)c4OC)CC(C(=O)N2Cc2ccccc2)N3C)c(OC)c(C)c1OC | 41.1 µM | –
CC1(C)CN=C(NN=C(/C=C/c2ccc(C(F)(F)F)cc2)/C=C/c2ccc(C(F)(F)F)cc2)NC1 | 2.14 µM | 785 nM
COc1cc(/C=C\c2cc(OC)c(OC)c(OC)c2)cc(N/C=C\C(=O)c2c[nH]c3ccccc23)c1OC | 5.14 µM | 2280 nM
O=C(N/C(=C\c1ccc([N+](=O)[O-])cc1)c1nc2ccccc2[nH]1)c1ccccc1 | > 100 µM | –
COC(=O)/C([Se]c1c(C)cc(C)cc1C)=C(/[Se]c1c(C)cc(C)cc1C)C(=O)OC | > 100 µM | –
NC(=O)C(=O)CC(=O)c1ccccc1NC1=CC(=O)C(=O)c2ccccc21 | > 100 µM | –
CC1CC(O)C(=O)C(O[C@@H]2C[C@@H]3CC[C@@H]4[C@H](CC[C@]5(C)C(C6=CC(=O)OC6)CC[C@]45O)[C@@]3(C=O)C[C@H]2O)O1 (some centres not stated) | 0.171 µM | –
Cc1cc2c(c(C(N)=O)c1C)-c1ccccc1C2=O | > 100 µM | –
CCCC(=O)C1=C(O)C(Cc2c(O)c(C)c(O)c(C(=O)CCC)c2O)=C(O)C(C)(C)C1=O | > 50 µM | –
COC(=O)/C(=N/O)C(C(=O)C=C(C)C)C(=O)C(=O)Nc1nc2ccc([N+](=O)[O-])cc2s1 (configuration not stated) | > 100 µM | –
Cc1ccccc1C1=[N+]([O-])c2ccc(Cl)cc2C1=O | 20.3 µM | –
Cc1[nH]c2ccccc2c1C1Cc2ccccc2N1C(=O)C#Cc1ccc([N+](=O)[O-])cc1 (configuration not stated) | > 100 µM | –
